Data: ChEMBL document CHEMBL5241090, “A comprehensive overview of β-carbolines and its derivatives as anticancer agents” (Eur J Med Chem, 2021)
In brackets after ≈: the same amount, converted by molar mass.

Legend:
Format in all cases: functional, cell-based
[1] = Cytotoxicity against human 95-D cells assessed as reduction in optical density by MTT assay
[2] = system: HepG2; assay: Cytotoxicity against human HepG2 cells assessed as reduction in optical density by MTT assay
[3] = system: SGC-7901; assay: Cytotoxicity against human SGC-7901 cells assessed as reduction in optical density by MTT assay
[4] = system: HCT-116; assay: Cytotoxicity against human HCT-116 cells by MTT assay
[5] = system: DU-145; assay: Cytotoxicity against human DU-145 cells
[6] = system: MCF7; assay: Cytotoxicity against human MCF7 cells
[7] = system: ACHN; assay: Cytotoxicity against human ACHN cells
[8] = system: HeLa; assay: Cytotoxicity against human HeLa cells
[9] = system: A549; assay: Cytotoxicity against human A549 cells
[10] = system: Huh-7; assay: Cytotoxicity against human Huh-7 cells
[11] = system: HCT-116; assay: Cytotoxicity against human HCT-116 cells
[12] = system: HGC-27; assay: Cytotoxicity against human HGC-27 cells measured after 48 hrs by MTT assay; conditions: HGC-27, 48 h
[13] = system: HeLa; assay: Cytotoxicity against human HeLa cells measured after 48 hrs by MTT assay
[14] = system: PC-3; assay: Cytotoxicity against human PC-3 cells measured after 48 hrs by MTT assay; conditions: PC-3, 48 h
[15] = system: MCF7; assay: Cytotoxicity against human MCF7 cells measured after 48 hrs by MTT assay; conditions: MCF7, 48 h

For `CCn1c2cc(OC)ccc2c2ccnc(C)c21`, the IC50 [1] was 36000 nM, the IC50 [2] was less than 36000 nM and the IC50 [3] was less than 36000 nM.
With `COC(=O)c1cc2c([nH]c3ccccc32)c(C(C)=O)n1` the IC50 [4] was 9.67 µg/mL (≈ 36 µM).
Molecule `O=C(/C=C/c1cc2c([nH]c3ccccc32)c(-c2ccc(C(F)(F)F)cc2)n1)c1ccco1` has an IC50 [5] of 1890 nM, an IC50 [6] of 1890 nM and an IC50 [7] of 1890 nM. It also gave an IC50 [8] of 1890 nM and an IC50 [9] of 1890 nM.
`CC(=O)N1N=C(c2ccco2)CC1c1cc2c([nH]c3ccccc32)c(-c2ccc(C(F)(F)F)cc2)n1` (configuration not stated) showed an IC50 [5] of 1940 nM, an IC50 [6] of 1940 nM and an IC50 [7] of 1940 nM. The IC50 [8] was 1940 nM and the IC50 [9] was 1940 nM.
Work on `Cc1ccc(-c2nc(NCc3ccc(C(=O)NO)cc3)cc3c2[nH]c2ccccc23)cc1` yielded an IC50 [10] of 530 nM, an IC50 [6] of 530 nM and an IC50 [11] of 530 nM.
For `COc1ccc2c3ccnc(C)c3n(CCCc3ccccc3)c2c1`, the IC50 [1] was 36000 nM, the IC50 [2] was less than 36000 nM and the IC50 [3] was less than 36000 nM.
In the case of `COc1ccc(-c2nc(Cn3cc(CN4C(=O)c5cccc6cccc(c56)C4=O)nn3)cc3c2[nH]c2ccccc23)cc1OC`, the IC50 [12] is reported as 7460 nM, the IC50 [13] is reported as 7460 nM and the IC50 [14] is reported as 7460 nM. For the same molecule, the IC50 [15] was 7460 nM.
Molecule `COc1ccc2c3ccnc(C)c3n(C)c2c1` has an IC50 [1] of less than 36000 nM, an IC50 [2] of less than 36000 nM and an IC50 [3] of less than 36000 nM.
